Results published in PubChem BioAssay AID216 (DTP/NCI, 2004).
Where “and” joins values, the source holds several entries; their conditions need not be identical. Equal entries are not always repeated. Toxic doses and inconclusive results are not listed. Numbered stars: 1 amine (or outer) side, 2 acyl side, 3 side chain; on linkers, the order of the positions; unused ones are H or OH. Bridge positions count the residues as written; N and C are the ends. Square brackets hold non-standard residues; d marks the D form. Peptide text beside a SMILES is read from it. I, II: the chains in the order shown. Actinocin(9to1) = Cc1c2oc3c(C)ccc(C(=O)[*:1])c3nc-2c(C(=O)[*:2])c(N)c1=O; aThr = C[C@H](O)[C@H](N)C(=O)O; NMeV = CN[C@H](C(=O)O)C(C)C; Sar = CNCC(=O)O

Tested on: BDF1 mice, P288 leukemia ip, survival T/C
Test: NCI In Vivo Anticancer Drug Screen. Data for tumor model P288 Lymphocytic Leukemia (intraperitoneal) in B6D2F1 (BDF1) mice
Details: endpoint: survival time, mean or median, higher = longer survival
Experimental: The antitumor activity of compounds was measured in mice bearing transplantable tumors. Survival or tumor size were measured and the results are expressed as the measurement made in the treated group (T) divided by the measurement made in the vehicle treated control group (C). The tumor model used in this assay is P288 Lymphocytic Leukemia (intraperitoneal) in B6D2F1 (BDF1) mice

[1] = dose: 0.63 mg/kg/injection, schedule: Q01DX Z (ip), vehicle: carboxymethylcellulose (CMC)
[2] = dose: 1.25 mg/kg/injection, schedule: Q01DX Z (ip), vehicle: carboxymethylcellulose (CMC)
[3] = dose: 10.0 mg/kg/injection, schedule: Q01DX010 (ip), vehicle: saline
[4] = dose: 100.0 mg/kg/injection, schedule: Q01DX010 (ip), vehicle: saline
[5] = dose: 200.0 mg/kg/injection, schedule: Q01DX010 (ip), vehicle: saline
[6] = dose: 800.0 mg/kg/injection, schedule: Q01DX010 (ip), vehicle: saline

Question: Which T/C (dose: 16.0 mg/kg/injection, schedule: Q01DX Z (ip), vehicle: carboxymethylcellulose (CMC)) does the source give for `OCC1OC(n2cnc3c(=S)nc[nH]c32)C(O)C1O` (stereo not drawn) here?
Answer: 94 % of control

Question: What about the T/C (dose: 31.0 mg/kg/injection, schedule: Q01DX Z (ip), vehicle: carboxymethylcellulose (CMC)) of the same molecule?
Answer: 94 % of control

Question: What about the T/C (dose: 62.5 mg/kg/injection, schedule: Q01DX Z (ip), vehicle: carboxymethylcellulose (CMC)) of the same molecule?
Answer: 109 % of control

Question: What about the T/C (dose: 125.0 mg/kg/injection, schedule: Q01DX Z (ip), vehicle: carboxymethylcellulose (CMC)) of the same molecule?
Answer: 97 % of control

Question: And the T/C (dose: 250.0 mg/kg/injection, schedule: Q01DX Z (ip), vehicle: carboxymethylcellulose (CMC))?
Answer: 92 % of control

Question: For `N#[N+]c1cnc([O-])[nH]c1=O`, which T/C [1] is on record?
Answer: 112 % of control

Question: And the T/C (dose: 1.25 mg/kg/injection, schedule: Q01DX010 (ip), vehicle: saline)?
Answer: 105 % of control

Question: And the T/C [2]?
Answer: 117 % of control

Question: And the T/C (dose: 2.5 mg/kg/injection, schedule: Q01DX010 (ip), vehicle: saline)?
Answer: 104 % of control

Question: And the T/C [3]?
Answer: 155 % of control

Question: How did the T/C (dose: 0.24 mg/kg/injection, schedule: Q01DX Z (ip), vehicle: carboxymethylcellulose (CMC)) turn out when `O=C(Nc1ccc(C2=NCCCN2)cc1)c1ccc(NC(=O)c2ccc(C3=NCCCN3)cc2)cc1` was run?
Answer: 113 % of control

Question: What about the T/C (dose: 0.49 mg/kg/injection, schedule: Q01DX Z (ip), vehicle: carboxymethylcellulose (CMC)) of the same molecule?
Answer: 94 % of control

Question: And the T/C (dose: 0.98 mg/kg/injection, schedule: Q01DX Z (ip), vehicle: carboxymethylcellulose (CMC))?
Answer: 121 % of control

Question: What about the T/C (dose: 1.0 mg/kg/injection, schedule: Q01DX010 (ip), vehicle: other) of the same molecule?
Answer: 120 % of control

Question: And the T/C (dose: 1.95 mg/kg/injection, schedule: Q01DX Z (ip), vehicle: carboxymethylcellulose (CMC))?
Answer: 119 % of control

Question: What about the T/C (dose: 2.0 mg/kg/injection, schedule: Q01DX010 (ip), vehicle: other) of the same molecule?
Answer: 124 % of control

Question: What about the T/C (dose: 3.9 mg/kg/injection, schedule: Q01DX Z (ip), vehicle: carboxymethylcellulose (CMC)) of the same molecule?
Answer: 183 % of control

Question: And the T/C (dose: 4.0 mg/kg/injection, schedule: Q01DX010 (ip), vehicle: other)?
Answer: 184 % of control and 237 % of control

Question: And the T/C (dose: 7.8 mg/kg/injection, schedule: Q01DX Z (ip), vehicle: carboxymethylcellulose (CMC))?
Answer: 245 % of control

Question: What about the T/C (dose: 8.0 mg/kg/injection, schedule: Q01DX010 (ip), vehicle: other) of the same molecule?
Answer: 237 % of control and 284 % of control

Question: What about the T/C (dose: 15.6 mg/kg/injection, schedule: Q01DX Z (ip), vehicle: carboxymethylcellulose (CMC)) of the same molecule?
Answer: 156 % of control

Question: And the T/C (dose: 16.0 mg/kg/injection, schedule: Q01DX010 (ip), vehicle: other)?
Answer: 92 % of control

Question: And the T/C (dose: 31.25 mg/kg/injection, schedule: Q01DX Z (ip), vehicle: carboxymethylcellulose (CMC))?
Answer: 103 % of control

Question: `CCN(CC)c1ccc2cc3ccc(=[N+](CC)CC)cc-3oc2c1` was tested. Which T/C (dose: 0.08 mg/kg/injection, schedule: Q01DX Z (ip), vehicle: carboxymethylcellulose (CMC)) did it give?
Answer: 110 % of control

Question: And the T/C (dose: 0.16 mg/kg/injection, schedule: Q01DX Z (ip), vehicle: carboxymethylcellulose (CMC))?
Answer: 90 % of control

Question: And the T/C (dose: 0.31 mg/kg/injection, schedule: Q01DX Z (ip), vehicle: carboxymethylcellulose (CMC))?
Answer: 108 % of control

Question: And the T/C (dose: 0.32 mg/kg/injection, schedule: Q01DX Z (ip), vehicle: carboxymethylcellulose (CMC))?
Answer: 96 % of control

Question: What about the T/C [1] of the same molecule?
Answer: 100 % of control

Question: And the T/C [2]?
Answer: 106 % of control

Question: What about the T/C (dose: 2.5 mg/kg/injection, schedule: Q01DX Z (ip), vehicle: carboxymethylcellulose (CMC)) of the same molecule?
Answer: 102 % of control

Question: What about the T/C (dose: 5.0 mg/kg/injection, schedule: Q01DX Z (ip), vehicle: carboxymethylcellulose (CMC)) of the same molecule?
Answer: 115 % of control and 117 % of control

Question: How did the T/C (dose: 6.0 mg/kg/injection, schedule: Q01DX010 (ip), vehicle: saline) turn out when `O=C(Nc1ccc(C2=NCCN2)cc1)c1ccc(C(=O)Nc2ccc(C3=NCCN3)cc2)c([N+](=O)[O-])c1` was run?
Answer: 155 % of control and 175 % of control

Question: What about the T/C (dose: 8.0 mg/kg/injection, schedule: Q01DX010 (ip), vehicle: saline) of the same molecule?
Answer: 188 % of control and 262 % of control

Question: What about the T/C (dose: 12.0 mg/kg/injection, schedule: Q01DX010 (ip), vehicle: saline) of the same molecule?
Answer: 333 % of control and 375 % of control

Question: What about the T/C (dose: 18.0 mg/kg/injection, schedule: Q01DX010 (ip), vehicle: saline) of the same molecule?
Answer: 187 % of control

Question: Which T/C (dose: 37.5 mg/kg/injection, schedule: Q01DX010 (ip), vehicle: saline) does the source give for `CO[C@@H]1[C@@H](OC2OC(C)C(OC3CC(C)(O)C(OC(=O)CC(C)C)C(C)O3)C(N(C)C)C2O)[C@@H](CC=O)C[C@@H](C)C(=O)/C=C/C2O[C@H]2C[C@@H](C)OC(=O)C[C@H]1OC(C)=O` (stereo partly drawn) here?
Answer: 94 % of control

Question: What about the T/C (dose: 50.0 mg/kg/injection, schedule: Q01DX010 (ip), vehicle: saline) of the same molecule?
Answer: 112 % of control

Question: What about the T/C (dose: 75.0 mg/kg/injection, schedule: Q01DX010 (ip), vehicle: saline) of the same molecule?
Answer: 88 % of control

Question: And the T/C [4]?
Answer: 162 % of control

Question: And the T/C (dose: 150.0 mg/kg/injection, schedule: Q01DX010 (ip), vehicle: saline)?
Answer: 88 % of control

Question: And the T/C [5]?
Answer: 168 % of control

Question: What about the T/C (dose: 300.0 mg/kg/injection, schedule: Q01DX010 (ip), vehicle: saline) of the same molecule?
Answer: 100 % of control

Question: What does the source list for `O=c1cnn(C2OC(CO)C(O)C2O)c(=O)[nH]1` (stereo not drawn)?
Answer: T/C (dose: 15.62 mg/kg/injection, schedule: Q01DX Z (ip), vehicle: water): 101 % of control; T/C (dose: 31.25 mg/kg/injection, schedule: Q01DX Z (ip), vehicle: water): 101 % of control; T/C (dose: 62.5 mg/kg/injection, schedule: Q01DX Z (ip), vehicle: water): 104 % of control; T/C (dose: 125.0 mg/kg/injection, schedule: Q01DX Z (ip), vehicle: water): 113 % of control and 95 % of control; T/C [5]: 111 % of control and 112 % of control; T/C (dose: 250.0 mg/kg/injection, schedule: Q01DX Z (ip), vehicle: water): 103 % of control and 123 % of control; T/C (dose: 400.0 mg/kg/injection, schedule: Q01DX010 (ip), vehicle: saline): 118 % of control; T/C (dose: 500.0 mg/kg/injection, schedule: Q01DX Z (ip), vehicle: water): 94 % of control; T/C [6]: 122 % of control; T/C (dose: 1000.0 mg/kg/injection, schedule: Q01DX Z (ip), vehicle: water): 103 % of control; T/C (dose: 1600.0 mg/kg/injection, schedule: Q01DX010 (ip), vehicle: saline): 112 % of control and 94 % of control

Question: With `CS(=O)(=O)OCC(O)C(O)COS(C)(=O)=O` (stereo not drawn) as the molecule, how does the T/C (dose: 94.0 mg/kg/injection, schedule: Q01DX Z (ip), vehicle: saline) read?
Answer: 111 % of control

Question: And the T/C [4]?
Answer: 105 % of control

Question: What about the T/C (dose: 187.5 mg/kg/injection, schedule: Q01DX Z (ip), vehicle: saline) of the same molecule?
Answer: 105 % of control

Question: What about the T/C [5] of the same molecule?
Answer: 94 % of control

Question: And the T/C (dose: 375.0 mg/kg/injection, schedule: Q01DX Z (ip), vehicle: saline)?
Answer: 117 % of control

Question: What about the T/C (dose: 750.0 mg/kg/injection, schedule: Q01DX Z (ip), vehicle: saline) of the same molecule?
Answer: 111 % of control

Question: And the T/C [6]?
Answer: 105 % of control

Question: `Cc1c2oc3c(C)ccc(C(=O)N[C@@H]4C(=O)N[C@H](C(C)C)C(=O)N5CCC[C@H]5C(=O)N(C)CC(=O)N(C)[C@@H](C(C)C)C(=O)O[C@H]4C)c3nc-2c(C(=O)N[C@@H]2C(=O)N[C@H](C(C)C)C(=O)N3CCC[C@H]3C(=O)N(C)CC(=O)N(C)[C@@H](C(C)C)C(=O)O[C@H]2C)c(N)c1=O` (I: [aThr][dV]P[Sar][NMeV] / II: [aThr][dV]P[Sar][NMeV]; ester I:1-I:C, II:1-II:C; linker I:N-II:N via Actinocin(9to1)) was tested. Which T/C (dose: 0.05 mg/kg/injection, schedule: Q01DX010 (ip), vehicle: other) did it give?
Answer: 155 % of control

Question: Which results are given for `Nc1nc2n[nH]nc2c(=O)[nH]1`?
Answer: T/C (dose: 12.5 mg/kg/injection, schedule: Q01DX Z (ip), vehicle: other): 111 % of control; T/C (dose: 25.0 mg/kg/injection, schedule: Q01DX010 (ip), vehicle: alkali diluted with saline): 100 % of control; T/C (dose: 100.0 mg/kg/injection, schedule: Q01DX Z (ip), vehicle: other): 152 % of control and 183 % of control; T/C (dose: 200.0 mg/kg/injection, schedule: Q01DX Z (ip), vehicle: other): 195 % of control

Question: Which results are given for `S=P(N1CCOCC1)(N1CC1)N1CC1`?
Answer: T/C (dose: 3.1 mg/kg/injection, schedule: Q01DX Z (ip), vehicle: carboxymethylcellulose (CMC)): 92 % of control; T/C (dose: 6.25 mg/kg/injection, schedule: Q01DX Z (ip), vehicle: carboxymethylcellulose (CMC)): 119 % of control; T/C [3]: 95 % of control; T/C (dose: 12.5 mg/kg/injection, schedule: Q01DX Z (ip), vehicle: carboxymethylcellulose (CMC)): 90 % of control; T/C (dose: 20.0 mg/kg/injection, schedule: Q01DX010 (ip), vehicle: saline): 95 % of control; T/C (dose: 25.0 mg/kg/injection, schedule: Q01DX Z (ip), vehicle: carboxymethylcellulose (CMC)): 86 % of control

Question: Which T/C (dose: 50.0 mg/kg/injection, schedule: Q01DX Z (ip), vehicle: saline) does the source give for `CN(N=O)C(=O)NC(C=O)C(O)C(O)C(O)CO` (stereo not drawn) here?
Answer: 111 % of control

Question: What about the T/C (dose: 100.0 mg/kg/injection, schedule: Q01DX Z (ip), vehicle: saline) of the same molecule?
Answer: 122 % of control
